# Results taken from US20210386068A1, “COMPOSITIONS COMPRISING PYRIDINE CARBOXYLATE HERBICIDES AND VERY LONG CHAIN FATTY ACID (VLCFA) SYNTHESIS INHIBITOR HERBICIDES” (priority 2018, published 2021).
# Experiments:
# Format in all cases: in vivo
# [1] = system: Brassica napus (winter rape, BRSNW); test: Greenhouse postemergence herbicidal effect, visual injury 20-22 d after spraying, winter rape (BRSNW); details: BRSNW
# Excerpt: (§1) Seeds of the desired test plant species were planted in a 90:10% v/v (volume/volume) mixture of PRO-MIX® BX (Premier Tech Horticulture, Quakertown, Pa., USA) and PROFILE® GREENS GRADE™ (Profile Products LLC, Buffalo Grove, Ill., USA) planting mixture, which typically has a pH of 5.2 to 6.2 and an organic matter content of at least 50 percent, in plastic pots with a surface area of 103.2 square centimeters (cm^2). In some aspects, to ensure good germination and healthy plants, a fungicide treatment and/or other chemical or physical treatment was applied. The plants were grown for 7-36 days (d) in a greenhouse with an approximate 14-hour (h) photoperiod which was maintained at about 23° C. during the day and 22° C. during the night. Nutrients and water were added on a regular basis and supplemental lighting was provided with overhead metal halide 1000-Watt lamps as necessary. The plants were employed for testing when they reached the second or third true leaf stage.
# (§2) Emulsifiable concentrates of each of each pyridine carboxylate herbicide (Compound A or Compound B) were prepared at 100 grams acid equivalent per liter (g ae/L). The emulsifiable concentrates also included a safener, cloquintocet-mexyl, at 120 grams active ingredient per liter (g ai/L). An aliquot of each emulsifiable concentrate was placed in a 25 mL glass vial and diluted with an aqueous mixture of 1.25% (v/v) ACTIROB® B esterified rapeseed oil (Bayer Crop Science, Research Triangle Park, N.C., USA) or MSO® Concentrate with LECI-TECH® methylated soybean oil (Loveland Products, Loveland, Colo., USA) to obtain concentrated stock solutions at the highest application rate for each herbicide, based upon a 12 milliliter (mL) application volume at a rate of 187 liters per hectare (L/ha). The concentrated stock solutions were further diluted with an aqueous mixture of 1.25% v/v ACTIROB® B or MSO® Concentrate with LECI-TECH® to obtain stock solutions at reduced application rates for each herbicide. Spray solutions of the herbicide combinations (Compound A or Compound B plus VLCFA synthesis inhibitor herbicide) were prepared by adding weighed amounts or aliquots of the VLCFA synthesis inhibitor herbicide to the stock solutions of Compound A or Compound B to form 12-mL spray solutions in two-way combinations.
# (§3) The spray solutions were applied to the plant material with an overhead Mandel track sprayer equipped with 8002E nozzles calibrated to deliver 187 L/ha over an application area of 0.503 square meters (m^2) at a spray height of 18 inches ([…] (cm)) above the average plant canopy. Control plants were sprayed in the same manner with the solvent blank. All pyridine carboxylate herbicide (component a) application rates are given as “g ae/ha” and all VLCFA synthesis inhibitor herbicide (component b) application rates are given as “g ai/ha.”
# (§4) The treated plants and control plants were placed in a greenhouse as described above and watered by sub-irrigation to prevent wash-off of the test compounds. After 20-22 d, the condition of the test plants as compared with that of the control plants was determined visually and scored on a scale of 0 to 100 percent where 0 corresponds to no injury and 100 corresponds to complete kill.
# [2] = system: Polygonum convolvulus (wild buckwheat, POLCO); test: Greenhouse postemergence herbicidal effect, visual injury 20-22 d after spraying, wild buckwheat (POLCO); details: POLCO
# Excerpt: as §1, §2, §3, §4
# [3] = system: Sinapis arvensis (wild mustard, SINAR); test: Greenhouse postemergence herbicidal effect, visual injury 20-22 d after spraying, wild mustard (SINAR); details: SINAR
# Excerpt: as §1, §2, §3, §4
# [4] = system: Salsola kali (Russian thistle, SASKR); test: Greenhouse postemergence herbicidal effect, visual injury 20-22 d after spraying, Russian thistle (SASKR); details: SASKR
# Excerpt: as §1, §2, §3, §4
# [5] = system: Kochia scoparia (kochia, KCHSC); test: Greenhouse postemergence herbicidal effect, visual injury 20-22 d after spraying, kochia (KCHSC); details: KCHSC
# Excerpt: as §1, §2, §3, §4
# [6] = system: Chenopodium album L. (common lambsquarters, CHEAL); test: Greenhouse postemergence herbicidal effect, visual injury 20-22 d after spraying, common lambsquarters (CHEAL)
# Excerpt: as §1, §2, §3, §4
# [7] = system: Amaranthus retroflexus (pigweed, AMARE); test: Greenhouse postemergence herbicidal effect, visual injury 20-22 d after spraying, pigweed (AMARE)
# Excerpt: as §1, §2, §3, §4
# [8] = system: Matricaria chamomilla (wild chamomile, MATCH); test: Greenhouse postemergence herbicidal effect, visual injury 20-22 d after spraying, wild chamomile (MATCH); details: MATCH
# Excerpt: as §1, §2, §3, §4
# [9] = system: Cirsium arvense (Canadian thistle, CIRAR); test: Greenhouse postemergence herbicidal effect, visual injury 20-22 d after spraying, Canadian thistle (CIRAR); details: CIRAR
# Excerpt: as §1, §2, §3, §4
# [10] = system: Triticum aestivum (spring wheat, TRZAS); test: Greenhouse postemergence crop phytotoxicity, visual injury 20-22 d after spraying, spring wheat (TRZAS); details: TRZAS
# Excerpt: as §1, §2, §3, §4
# [11] = system: Hordeum vulgare (spring barley, HORVS); test: Greenhouse postemergence crop phytotoxicity, visual injury 20-22 d after spraying, spring barley (HORVS); details: HORVS
# Excerpt: as §1, §2, §3, §4
# [12] = system: Brassica napus (spring rape, BRSNN); test: Greenhouse postemergence herbicidal effect, visual injury 20-22 d after spraying, spring rape (BRSNN)
# Excerpt: as §1, §2, §3, §4
compound,measurement,setting,value
"CCOCCN(C(=O)CCl)C(=C(C)C)c1ccccc1 [Pethoxamid, 2-chloro-N-(2-ethoxyethyl)-N-(2-methyl-1-phenyl-1-propen-1-yl)acetamide]",% visual injury Obs,[1]; Pethoxamid 600 g/ha alone,0%
same,% visual injury Obs,[2]; Pethoxamid 600 g/ha alone,0%
same,% visual injury Obs,[3]; Pethoxamid 600 g/ha alone,0%
same,% visual injury Obs,[4]; Pethoxamid 600 g/ha alone,0%
same,% visual injury Obs,[5]; Pethoxamid 600 g/ha alone,0%
same,% visual injury Obs,[6]; Pethoxamid 600 g/ha alone,0%
same,% visual injury Obs,[7]; Pethoxamid 600 g/ha alone,0%
same,% visual injury Obs,[8]; Pethoxamid 600 g/ha alone,0%
same,% visual injury Obs,[9]; Pethoxamid 600 g/ha alone,0%
same,% visual injury Obs,[10]; Pethoxamid 600 g/ha alone,0%
same,% visual injury Obs,[11]; Pethoxamid 600 g/ha alone,0%
"Cn1nc(C(F)(F)F)c(CS(=O)(=O)C2=NOC(C)(C)C2)c1OC(F)F [Pyroxasulfone, 3-[[[5-(difluoromethoxy)-1-methyl-3-(trifluoromethyl)-1H-pyrazol-4-yl]methyl]sulfonyl]-4,5-dihydro-5,5-dimethylisoxazole]",% visual injury,[1]; Pyroxasulfone 100 g/ha alone,5%
same,% visual injury,[2]; Pyroxasulfone 100 g/ha alone,0%
same,% visual injury,[3]; Pyroxasulfone 100 g/ha alone,28%
same,% visual injury,[4]; Pyroxasulfone 100 g/ha alone,10%
same,% visual injury,[5]; Pyroxasulfone 100 g/ha alone,0%
same,% visual injury,[6]; Pyroxasulfone 100 g/ha alone,0%
same,% visual injury,[7]; Pyroxasulfone 100 g/ha alone,5%
same,% visual injury,[8]; Pyroxasulfone 100 g/ha alone,0%
same,% visual injury,[9]; Pyroxasulfone 100 g/ha alone,0%
"CCCCOCN(C(=O)CCl)c1c(CC)cccc1CC [Butachlor, N-(butoxymethyl)-2-chloro-N-(2,6-diethylphenyl) acetamide]",% visual injury Obs,[1]; Butachlor 450 g/ha alone,0%
same,% visual injury Obs,[2]; Butachlor 450 g/ha alone,0%
same,% visual injury Obs,[3]; Butachlor 450 g/ha alone,0%
same,% visual injury Obs,[4]; Butachlor 450 g/ha alone,0%
same,% visual injury Obs,[5]; Butachlor 450 g/ha alone,0%
same,% visual injury Obs,[6]; Butachlor 450 g/ha alone,0%
same,% visual injury Obs,[7]; Butachlor 450 g/ha alone,0%
same,% visual injury Obs,[8]; Butachlor 450 g/ha alone,5%
same,% visual injury Obs,[9]; Butachlor 450 g/ha alone,0%
S-Metolachlor,% visual injury Obs,[1]; S-Metolachlor 500 g/ha alone,0%
same,% visual injury Obs,[2]; S-Metolachlor 500 g/ha alone,0%
same,% visual injury Obs,[3]; S-Metolachlor 500 g/ha alone,0%
same,% visual injury Obs,[4]; S-Metolachlor 500 g/ha alone,0%
same,% visual injury Obs,[5]; S-Metolachlor 500 g/ha alone,0%
same,% visual injury Obs,[6]; S-Metolachlor 500 g/ha alone,0%
same,% visual injury Obs,[7]; S-Metolachlor 500 g/ha alone,0%
same,% visual injury Obs,[8]; S-Metolachlor 500 g/ha alone,0%
same,% visual injury Obs,[9]; S-Metolachlor 500 g/ha alone,0%
same,% visual injury Obs,[10]; S-Metolachlor 500 g/ha alone,0%
same,% visual injury Obs,[11]; S-Metolachlor 500 g/ha alone,0%
"CCN(CC)C(=O)n1cnc(S(=O)(=O)c2c(C)cc(C)cc2C)n1 [Cafenstrole, N,N-diethyl-3-[(2,4,6-trimethylphenyl)sulfonyl]-1H-1,2,4-triazole-1-carboxamide]",% visual injury Obs,[2]; Cafenstrole 52.5 g/ha alone,5%
same,% visual injury Obs,[3]; Cafenstrole 52.5 g/ha alone,0%
same,% visual injury Obs,[4]; Cafenstrole 52.5 g/ha alone,0%
same,% visual injury Obs,[5]; Cafenstrole 52.5 g/ha alone,5%
same,% visual injury Obs,[6]; Cafenstrole 52.5 g/ha alone,0%
same,% visual injury Obs,[8]; Cafenstrole 52.5 g/ha alone,5%
same,% visual injury Obs,[10]; Cafenstrole 52.5 g/ha alone,0%
same,% visual injury Obs,[11]; Cafenstrole 52.5 g/ha alone,0%
same,% visual injury Obs,[12]; Cafenstrole 52.5 g/ha alone,5%
"CN(C(=O)COc1nc2ccccc2s1)c1ccccc1 [Mefenacet, 2-(2-benzothiazolyloxy)-N-methyl-N-phenylacetamide]",% visual injury Obs,[2]; Mefenacet 50 g/ha alone,0%
same,% visual injury Obs,[3]; Mefenacet 50 g/ha alone,0%
same,% visual injury Obs,[4]; Mefenacet 50 g/ha alone,0%
same,% visual injury Obs,[5]; Mefenacet 50 g/ha alone,0%
same,% visual injury Obs,[6]; Mefenacet 50 g/ha alone,0%
same,% visual injury Obs,[8]; Mefenacet 50 g/ha alone,0%
same,% visual injury Obs,[12]; Mefenacet 50 g/ha alone,5%
"COC[C@H](C)N(C(=O)CCl)c1c(C)csc1C [Dimethenamid-P, (S)-2-chloro-N-(2,4-dimethyl-3-thienyl)-N-(2-methoxy-1-methyl-ethyl)acetamide]",% visual injury Obs,[2]; Dimethenamid-P 560 g/ha alone,0%
same,% visual injury Obs,[3]; Dimethenamid-P 560 g/ha alone,0%
same,% visual injury Obs,[4]; Dimethenamid-P 560 g/ha alone,0%
same,% visual injury Obs,[5]; Dimethenamid-P 560 g/ha alone,0%
same,% visual injury Obs,[6]; Dimethenamid-P 560 g/ha alone,0%
same,% visual injury Obs,[7]; Dimethenamid-P 560 g/ha alone,10%
same,% visual injury Obs,[8]; Dimethenamid-P 560 g/ha alone,0%
same,% visual injury Obs,[9]; Dimethenamid-P 560 g/ha alone,0%
same,% visual injury Obs,[12]; Dimethenamid-P 560 g/ha alone,0%
"CCN(C(=O)n1nnn(-c2ccccc2Cl)c1=O)C1CCCCC1 [Fentrazamide, 4-(2-chlorophenyl)-N-cyclohexyl-N-ethyl-4,5-dihydro-5-oxo-1H-tetrazole-1-carboxamide]",% visual injury Obs,[1]; Fentrazamide 200 g/ha alone,0%
same,% visual injury Obs,[2]; Fentrazamide 200 g/ha alone,5%
same,% visual injury Obs,[3]; Fentrazamide 200 g/ha alone,0%
same,% visual injury Obs,[4]; Fentrazamide 200 g/ha alone,0%
same,% visual injury Obs,[5]; Fentrazamide 200 g/ha alone,0%
same,% visual injury Obs,[6]; Fentrazamide 200 g/ha alone,0%
same,% visual injury Obs,[7]; Fentrazamide 200 g/ha alone,0%
same,% visual injury Obs,[8]; Fentrazamide 200 g/ha alone,0%
same,% visual injury Obs,[9]; Fentrazamide 200 g/ha alone,0%
same,% visual injury Obs,[10]; Fentrazamide 200 g/ha alone,0%
same,% visual injury Obs,[11]; Fentrazamide 200 g/ha alone,0%
